Measured values as given in PMC8962522, “Direct interaction of TrkA/CD44v3 is essential for NGF-promoted aggressiveness of breast cancer cells” (Journal of Experimental & Clinical Cancer Research : CR, 2022).

What was measured:
[1] = test system: TrkA/CD44v3 complex in MDA-MB-231 cells; assay: PLA TrkA/CD44v3 complex formation in MDA-MB-231 cells; format: cell-based; conditions: NGF 100 ng/ml; 30 fields per condition, three experiments
Procedure: Cells (10,000 cells per well) were grown on acid-washed eight-well glass slides (Thermo Scientific) in the appropriate medium supplemented with 10% FBS for 24 h. After NGF treatment, paraformaldehyde (PAF)-fixed cells were incubated with 4% bovine serum albumin (BSA) or 5% FBS (for 1 h at 20 °C), followed by overnight incubation with primary antibodies (rabbit anti-TrkA or rabbit anti-IgG + mouse anti-pan-CD44; mouse anti-CD44v3; mouse anti-CD44v6; mouse anti-IgG2a; mouse anti-IgG2b; or mouse anti-IgG1). PLA was performed following the manufacturer’s instructions in the assay kit (Duolink PLA; Sigma–Aldrich). To obtain the correct representation of the PLA signal for each condition, 30 fields per condition were observed using a fluorescence microscope (Eclipse TiU; Nikon, Japan). The PLA signals (red dots) were automatically quantified using ImageJ software (with an in-house-developed plug-in). After PLA, statistical analyses were performed using GraphPad Prism software to determine the mean dot intensity in the cells.
Fig. 3 CD44v3 mimetic peptide 4 blocks the TrkA-CD44 association in MDA-MB-231 breast cancer cells. TrkA/CD44v3 (A) and TrkA/CD44v6 (B) complex associations were detected by the proximity ligation assay (PLA) in MDA-MB-231 breast cancer cells. Effects of a scramble peptide (SP) (C), CD44v3 mimetic peptide 3 (P3) and 4 (P4) (D) on TrkA/CD44v3 complex formation induced by NGF. Quantification of the PLA results was performed by ImageJ software (30 randomly chosen fields per condition of three different experiments). Statistical analyses were performed using one-way ANOVA followed by Bonferroni’s posttest. The error bars represent the standard error of the mean (S.E.M.); * p < 0.05, ** p < 0.01, *** p < 0.001; ns, not significant

MDA-MB-231 cells = assay: Transwell invasion assay through collagen I, MDA-MB-231; format: cell-based; conditions: peptide 50 ng/mL for 30 min, NGF in lower chamber, 24 h (legend: 16 h)
Procedure: Transwell invasion assays were performed to assess cancer cell invasion in a Transwell chamber containing a collagen I-coated membrane (12-wells with inserts and […] pore size membranes; Corning, Life Sciences). A total of 1 × 10^6 starved cells (0.1% in SVF medium) were plated in the top chamber and incubated for 10 min before treatment with a peptide (50 ng/mL for 30 min); NGF was added to the lower chamber. After 24 h, the cells were fixed with methanol for 10 min and stained with Hoechst 33258 (1 mg/mL) for 30 min, and the cells that invaded the lower surface through the pores of the inserts were automatically counted under an inverted microscope with ImageJ software (with an in-house-developed plug-in).
Fig. 4 CD44v3 mimetic peptide 4 inhibits MDA-MB-231 breast cancer cell growth and migration/invasion. Clonogenic MDA-MB-231 cell growth was measured after 10 days in the presence of a scramble peptide (SP) or CD44v3 mimetic peptide (P4) (A, B). The elongation factor (length-to-width ratio) was assessed after 10 days in the presence or absence of NGF (C, D, E). Migration assays were performed using Ibidi devices 24 h after treatment (H, I). Invasion through collagen 1 was measured by the Transwell assay 16 h after treatment (J, K). Statistical analyses were performed using one-way ANOVA followed by Bonferroni’s posttest. […]

| Substance | effect on TrkA/CD44v3 complex formation (PLA) in MDA-MB-231 cells [1] | effect on invasion of MDA-MB-231 cells (MDA-MB-231 cells) |
| --- | --- | --- |
| IDDDEDFISST [Peptide 4, mimetic peptide 4 (…) corresponding to the C-terminal region of CD44v3] | could disrupt TrkA/CD44v3 complex formation in MDA-MB-231 cells | a decrease in both basal levels and NGF-induced invasion was observed |
| NGF: recombinant human β-NGF (Alomone Labs, Israel) | induced TrkA/CD44v3 complex formation in MDA-MB-231 cells at the plasma membrane within 5 min to 30 min of administration | more NGF-treated cells than untreated cells invaded the collagen substrate |
